Reference: PMC11219871, “Epigenetic-based differentiation therapy for Acute Myeloid Leukemia” (Nature Communications, 2024)

Experiments:
HDAC1 = HDAC1 (Homo sapiens, UniProt Q13547); assay: HDAC enzymatic assay, fluorescence-labeled substrate; type: biochemical; settings: read-out: HDAC1 IC50
HDAC6 = target: T1, HDAC6 (Homo sapiens, UniProt Q9UBN7); assay: as above; type: biochemical; settings: read-out: HDAC6 IC50
T1 sequence (Q9UBN7 1-1215): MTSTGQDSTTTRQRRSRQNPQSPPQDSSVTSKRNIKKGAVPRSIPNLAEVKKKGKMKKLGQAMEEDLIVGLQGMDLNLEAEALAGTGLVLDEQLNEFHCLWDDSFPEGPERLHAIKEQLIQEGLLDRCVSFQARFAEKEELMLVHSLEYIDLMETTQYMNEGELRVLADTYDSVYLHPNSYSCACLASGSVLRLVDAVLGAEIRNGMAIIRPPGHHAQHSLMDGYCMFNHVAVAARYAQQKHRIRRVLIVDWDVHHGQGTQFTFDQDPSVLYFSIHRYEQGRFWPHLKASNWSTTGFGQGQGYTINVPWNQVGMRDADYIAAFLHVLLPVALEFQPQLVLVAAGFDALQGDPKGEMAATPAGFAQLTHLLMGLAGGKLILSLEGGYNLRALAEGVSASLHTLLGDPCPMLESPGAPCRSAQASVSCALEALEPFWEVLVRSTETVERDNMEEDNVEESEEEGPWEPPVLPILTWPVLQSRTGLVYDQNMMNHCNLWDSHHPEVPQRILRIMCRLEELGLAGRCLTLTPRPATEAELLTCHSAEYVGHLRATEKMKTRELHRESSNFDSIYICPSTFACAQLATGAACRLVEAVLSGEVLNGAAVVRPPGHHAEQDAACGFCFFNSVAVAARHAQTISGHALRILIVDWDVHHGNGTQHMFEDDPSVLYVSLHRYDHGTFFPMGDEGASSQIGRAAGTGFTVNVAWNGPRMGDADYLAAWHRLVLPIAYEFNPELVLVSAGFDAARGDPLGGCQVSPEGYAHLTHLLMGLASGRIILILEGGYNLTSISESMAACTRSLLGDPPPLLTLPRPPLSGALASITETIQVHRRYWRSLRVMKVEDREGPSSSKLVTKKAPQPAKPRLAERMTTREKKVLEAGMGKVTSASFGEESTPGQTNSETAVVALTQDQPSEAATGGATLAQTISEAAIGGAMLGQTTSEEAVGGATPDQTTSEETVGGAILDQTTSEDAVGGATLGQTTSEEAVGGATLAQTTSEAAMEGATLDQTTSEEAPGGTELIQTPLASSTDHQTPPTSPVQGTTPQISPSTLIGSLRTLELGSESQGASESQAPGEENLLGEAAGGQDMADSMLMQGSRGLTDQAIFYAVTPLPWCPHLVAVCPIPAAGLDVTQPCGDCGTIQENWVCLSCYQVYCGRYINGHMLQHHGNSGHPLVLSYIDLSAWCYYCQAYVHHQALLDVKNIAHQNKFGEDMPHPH

HL-60 [1] = assay: Cell proliferation assay: GI50; type: cell-based, human; settings: 48 h; read-out: HL-60 GI50
Description: Cell proliferation was analyzed using the CellTiter 96 Aqueous One Solution Cell Proliferation Assay (Promega, Madison, WI). This is a colorimetric method for determining the number of viable cells in proliferation. For the assay, suspension cells were cultured in triplicate at a density of 1 × 10^6 cells/mL in 96-well plates (100.000 cells/well, 100 µL/well), using only the 60 inner wells to avoid any border effects. […] Then, the cells were incubated with 100 μL/well of medium and 20 μL/well of CellTiter 96 Aqueous One Solution reagent for 1–3 h. […] The background absorbance was measured in wells with only cell line medium and solution reagent. First, the average of the absorbance from the control wells was subtracted from all other absorbance values. Data were calculated as the percentage of total absorbance of treated cells/absorbance of non-treated cells. The GI50 values of the different compounds were determined using non-linear regression plots made with GraphPad Prism v5 software.

HL-60 [2] = assay: Differentiation-apoptosis assay, CD11b / annexin-V / Sytox Green / myeloid markers flow cytometry; type: cell-based, human; settings: HL-60, daily 25% GI50, 48 h; for Annexin V + (%) / CD11b+ (%): mean of three
Description: Next, the cells were washed twice with phosphate-buffered saline (PBS) and resuspended in 1X Binding Buffer at a concentration of 1 × 10^6 cells/mL. […] Finally, after the addition of 400 µL of 1X Binding Buffer to each tube, samples were collected on a BD FACSCanto flow cytometer (Becton Dickinson, San Jose, CA, USA) and analyzed using FlowJo software.
Then, 1 million cells (volume of 250 µL) were added and incubated for 30 min at room temperature in darkness. After 10 min incubation at room temperature with 2 mL of FACSLysing 1X, cells were centrifuged at 540 g for 5 min and washed twice with FACSBuffer. Finally, after centrifugation at 540 g for 5 min cells were resuspended in FACSBuffer.

HDAC1, sequence (Q13547 whole entry): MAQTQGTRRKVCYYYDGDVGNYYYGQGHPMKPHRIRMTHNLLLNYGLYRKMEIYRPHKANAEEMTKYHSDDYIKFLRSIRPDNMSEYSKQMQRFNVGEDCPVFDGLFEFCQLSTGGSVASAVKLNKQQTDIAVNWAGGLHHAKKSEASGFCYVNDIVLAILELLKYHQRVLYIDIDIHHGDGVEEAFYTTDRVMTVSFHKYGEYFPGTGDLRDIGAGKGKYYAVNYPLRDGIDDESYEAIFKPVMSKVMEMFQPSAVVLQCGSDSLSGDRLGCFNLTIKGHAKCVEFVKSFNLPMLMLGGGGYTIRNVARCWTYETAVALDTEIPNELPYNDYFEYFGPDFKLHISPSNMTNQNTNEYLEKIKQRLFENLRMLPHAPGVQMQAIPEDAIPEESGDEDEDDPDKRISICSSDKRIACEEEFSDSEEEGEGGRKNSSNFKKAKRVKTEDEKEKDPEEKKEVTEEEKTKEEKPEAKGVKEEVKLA

| Structure (SMILES) | IC50 (HDAC1) [µM] | IC50 (HDAC6) [µM] | GI50 (HL-60 [1]) [µM] | Annexin V (%) Replicate 1 (HL-60 [2]) [%] | Annexin V (%) Replicate 2 (HL-60 [2]) [%] | Annexin V (%) Replicate 3 (HL-60 [2]) [%] | CD11b (%) Replicate 1 (HL-60 [2]) [%] | CD11b (%) Replicate 2 (HL-60 [2]) [%] | CD11b (%) Replicate 3 (HL-60 [2]) [%] | Annexin V + (%) (HL-60 [2]) | CD11b+ (%) (HL-60 [2]) |
| --- | --- | --- | --- | --- | --- | --- | --- | --- | --- | --- | --- |
| COc1cc2c(NC3CCN(C)CC3)cc(-c3ccc(C)o3)nc2cc1OCCCN1CCCC1 [CM-272] | > 20 | > 20 | 2.9 | 1.02 | 1.64 | 1.88 | 1.50 | 0.87 | 0.44 | 1.51 | 0.94 |
| COc1cc2c(NCC3CCN(C)CC3)cc(-c3ccc(C)o3)nc2cc1OCCCN1CCCC1 [CM-579] | > 20 | > 20 | > 10 | 0.00 | 0.00 | 0.00 | 0.00 | 0.00 | 0.00 | 0.00 | 0.00 |
